# According to patent publication US9233964B2, “Sulfamide piperazine derivatives as protein tyrosine kinase inhibitors and pharmaceutical use therof” (LEO PHARMA A/S, priority 2011, dated 2016):
# What was measured:
# Type in all cases: biochemical
# JAK1 = target: T1, JAK1 (Homo sapiens, UniProt P23458); test: JAK kinase assay (HTRF, phosphorylation of synthetic peptide), JAK1; settings: catalytic domain, ATP at Km (7 μM); read-out: JAK1 kinase inhibitory activity (EC50)
# T1 construct: JAK1 (aa 850-1154) and TYK2 (aa 871-1187) are expressed with an N-terminally fused GST-tag; GST (N); purchased Carna Biosciences, Inc; host or cells: baculovirus expression system
# T1 sequence (P23458 850-1154): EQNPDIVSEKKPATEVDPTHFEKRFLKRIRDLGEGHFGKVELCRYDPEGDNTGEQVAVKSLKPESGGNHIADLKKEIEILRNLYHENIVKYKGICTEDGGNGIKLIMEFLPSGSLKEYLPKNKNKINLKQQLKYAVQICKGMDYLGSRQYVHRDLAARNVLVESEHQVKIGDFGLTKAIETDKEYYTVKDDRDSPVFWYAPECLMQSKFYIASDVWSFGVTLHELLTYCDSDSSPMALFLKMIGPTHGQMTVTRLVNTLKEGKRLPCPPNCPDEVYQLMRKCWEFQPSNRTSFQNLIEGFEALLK
# In short: (§1)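 Catalytic-domain human JAK1 (GST-tagged, aa 850-1154) or His-tagged JAK2, baculovirus-expressed, phosphorylated 1 µM biotinylated TK peptide at Km ATP (JAK1 7 µM, 10 mM MgCl2, 50 nM SEB; JAK2 4 µM, 5 mM MgCl2) in pH 7.0 Hepes, 20-30 min RT. EDTA stop; overnight streptavidin-XL665/cryptate HTRF read.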
# JAK2 = target: T2, JAK2 (Homo sapiens, UniProt O60674); test: JAK kinase assay (HTRF, phosphorylation of synthetic peptide), JAK2; settings: catalytic domain, ATP at Km (4 μM); read-out: JAK2 kinase inhibitory activity (EC50)
# T2 construct: All four purified enzymes contain only the catalytic domain; His (N); purchased Carna Biosciences, Inc; host or cells: baculovirus expression system
# T2 sequence (O60674 849-1124 limits assumed): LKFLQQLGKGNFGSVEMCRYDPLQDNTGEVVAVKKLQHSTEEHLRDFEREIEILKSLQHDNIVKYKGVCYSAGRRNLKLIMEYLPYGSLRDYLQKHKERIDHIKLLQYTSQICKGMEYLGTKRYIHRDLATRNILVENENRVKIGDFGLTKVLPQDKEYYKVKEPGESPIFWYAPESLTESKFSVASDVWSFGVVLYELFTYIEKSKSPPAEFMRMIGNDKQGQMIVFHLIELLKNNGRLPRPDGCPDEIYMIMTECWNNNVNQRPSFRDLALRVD
# In short: as §1
# JAK3 = target: T3, JAK3 (Homo sapiens, UniProt P52333); test: JAK kinase assay (HTRF, phosphorylation of synthetic peptide), JAK3; settings: catalytic domain, ATP at Km (2 μM); read-out: JAK3 kinase inhibitory activity (EC50)
# T3 construct: All four purified enzymes contain only the catalytic domain; His (N); purchased Carna Biosciences, Inc; host or cells: baculovirus expression system
# T3 sequence (P52333 822-1111 limits assumed): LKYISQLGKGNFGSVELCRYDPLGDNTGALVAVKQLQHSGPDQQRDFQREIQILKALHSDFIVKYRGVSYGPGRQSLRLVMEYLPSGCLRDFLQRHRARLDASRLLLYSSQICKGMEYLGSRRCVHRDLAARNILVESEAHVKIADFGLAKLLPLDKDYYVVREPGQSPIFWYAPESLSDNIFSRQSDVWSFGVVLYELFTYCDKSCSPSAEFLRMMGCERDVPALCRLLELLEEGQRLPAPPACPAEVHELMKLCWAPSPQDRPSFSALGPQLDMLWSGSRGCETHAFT
# TYK2 = target: T4, TYK2 (Homo sapiens, UniProt P29597); test: JAK kinase assay (HTRF, phosphorylation of synthetic peptide), TYK2; settings: catalytic domain, ATP at Km (13 μM); read-out: TYK2 kinase inhibitory activity (EC50)
# T4 construct: JAK1 (aa 850-1154) and TYK2 (aa 871-1187) are expressed with an N-terminally fused GST-tag; GST (N); purchased Carna Biosciences, Inc; host or cells: baculovirus expression system
# T4 sequence (P29597 871-1187): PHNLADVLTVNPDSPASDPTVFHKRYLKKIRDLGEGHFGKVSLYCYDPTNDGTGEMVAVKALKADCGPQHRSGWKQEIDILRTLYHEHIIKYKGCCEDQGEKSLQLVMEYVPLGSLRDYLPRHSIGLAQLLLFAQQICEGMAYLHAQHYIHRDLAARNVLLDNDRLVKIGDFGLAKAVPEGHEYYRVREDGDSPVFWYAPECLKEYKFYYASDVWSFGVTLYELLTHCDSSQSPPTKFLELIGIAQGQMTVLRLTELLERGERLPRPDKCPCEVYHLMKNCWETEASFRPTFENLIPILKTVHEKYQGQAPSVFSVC
# In short: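 1 µM biotinylated TK peptide at Km ATP in pH 7.0 Hepes, 20-30 min RT. EDTA stop; overnight streptavidin-XL665/cryptate HTRF read.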
Structure (SMILES),EC50 (JAK1) [nM],EC50 (JAK2) [nM],EC50 (JAK3) [nM],EC50 (TYK2) [nM]
"CN(CC1CCCN(C(=O)CCO)C1)S(=O)(=O)N1CCN(c2ncnc3[nH]ccc23)CC12CC2 (stereo not shown) [Example 154, N-[[1-(3-hydroxypropanoyl)-3-piperidyl]methyl]-N-methyl-5-(7H-pyrrolo[2,3-d]pyrimidin-4-yl)-5,8-diazaspiro[2.5]octane-8-sulfonamide]",< 100,< 100,< 100,100 to 500
"CN(C[C@@H]1CC(F)(F)CN1S(=O)(=O)CCCC#N)S(=O)(=O)N1CCN(c2ncnc3[nH]ccc23)CC12CC2 [Example 163, N-[[(2S)-1-(3-cyanopropylsulfonyl)-4,4-difluoro-pyrrolidin-2-yl]methyl]-N-methyl-5-(7H-pyrrolo[2,3-d]pyrimidin-4-yl)-5,8-diazaspiro[2.5]octane-8-sulfonamide]",< 100,< 100,< 100,< 100
"O=S(=O)(N(CCOc1ccccc1)C1COC1)N1CCN(c2ncnc3[nH]ccc23)CC12CC2 [Example 115, N-(oxetan-3-yl)-N-(2-phenoxyethyl)-5-(7H-pyrrolo[2,3-d]pyrimidin-4-yl)-5,8-diazaspiro[2.5]octane-8-sulfonamide]",< 100,< 100,< 100,100 to 500
"O=S(=O)(N(CCCc1ccccc1)CCc1ccccc1)N1CCN(c2ncnc3[nH]ccc23)CC12CC2 [Example 9, 7-(7H-Pyrrolo[2,3-d]pyrimidin-4-yl)-4,7-diaza-spiro[2.5]octane-4-sulfonic acid phenethyl-(3-phenyl-propyl)-amide]",> 500,100 to 500,> 500,> 500
O=S(=O)(NC1COC1)N1CCN(c2ncnc3[nH]ccc23)CC12CC2 [Int 41],< 100,< 100,< 100,100 to 500
"CN(C1COC1)S(=O)(=O)N1CCN(c2ncnc3[nH]ccc23)CC12CC2 [Example 112, N-methyl-N-(oxetan-3-yl)-5-(7H-pyrrolo[2,3-d]pyrimidin-4-yl)-5,8-diazaspiro[2.5]octane-8-sulfonamide]",< 100,< 100,< 100,100 to 500
"CN(CC1CCN(S(C)(=O)=O)CC1)S(=O)(=O)N1CCN(c2ncnc3[nH]ccc23)CC12CC2 [Example 158, N-methyl-N-[(1-methylsulfonyl-4-piperidyl)methyl]-5-(7H-pyrrolo[2,3-d]pyrimidin-4-yl)-5,8-diazaspiro[2.5]octane-8-sulfonamide]",< 100,< 100,< 100,100 to 500
"O=S(=O)(NC1CCCC1)N1CCN(c2ncnc3[nH]ccc23)CC12CC2 [Example 144, N-cyclopentyl-5-(7H-pyrrolo[2,3-d]pyrimidin-4-yl)-5,8-diazaspiro[2.5]octane-8-sulfonamide]",< 100,< 100,100 to 500,100 to 500
"CN(C[C@@H]1CCCN1C(=O)CO)S(=O)(=O)N1CCN(c2ncnc3[nH]ccc23)CC12CC2 [Example 192, N-[[(2S)-1-(2-hydroxyacetyl)pyrrolidin-2-yl]methyl]-N-methyl-5-(7H-pyrrolo[2,3-d]pyrimidin-4-yl)-5,8-diazaspiro[2.5]octane-8-sulfonamide]",< 100,< 100,< 100,< 100
O=S1(=O)CCC(CNS(=O)(=O)N2CCN(c3ncnc4[nH]ccc34)CC23CC3)CC1 [Int 38],< 100,< 100,< 100,> 500
"CN(CC1CC1(F)F)S(=O)(=O)N1CCN(c2ncnc3[nH]ccc23)CC12CC2 (stereo not shown) [Example 86, N-[(2,2-difluorocyclopropyl)methyl]-N-methyl-5-(7H-pyrrolo[2,3-d]pyrimidin-4-yl)-5,8-diazaspiro[2.5]octane-8-sulfonamide]",< 100,< 100,< 100,< 100
"COCCN(CCc1ccccc1)S(=O)(=O)N1CCN(c2ncnc3[nH]ccc23)CC12CC2 [Example 22, 7-(7H-Pyrrolo[2,3-d]pyrimidin-4-yl)-4,7-diaza-spiro[2.5]octane-4-sulfonic acid (2-methoxy-ethyl)-phenethyl-amide]",< 100,< 100,< 100,100 to 500
"CN(C[C@H]1CCCN1C(=O)CCC#N)S(=O)(=O)N1CCN(c2ncnc3[nH]ccc23)CC12CC2 [Example 187, N-[[(2R)-1-(3-cyanopropanoyl)pyrrolidin-2-yl]methyl]-N-methyl-5-(7H-pyrrolo[2,3-d]pyrimidin-4-yl)-5,8-diazaspiro[2.5]octane-8-sulfonamide]",< 100,< 100,100 to 500,100 to 500
"CN(CC1CCN(S(C)(=O)=O)C1)S(=O)(=O)N1CCN(c2ncnc3[nH]ccc23)CC12CC2 (stereo not shown) [Example 119, N-methyl-N-[(1-methylsulfonylpyrrolidin-3-yl)methyl]-5-(7H-pyrrolo[2,3-d]pyrimidin-4-yl)-5,8-diazaspiro[2.5]octane-8-sulfonamide]",< 100,< 100,< 100,100 to 500
"CN(CCC1CCCCC1)S(=O)(=O)N1CCN(c2ncnc3[nH]ccc23)CC12CC2 [Example 11, 7-(7H-Pyrrolo[2,3-d]pyrimidin-4-yl)-4,7-diaza-spiro[2.5]octane-4-sulfonic acid (2-cyclohexyl-ethyl)-methyl-amide]",< 100,< 100,100 to 500,> 500
"CN(Cc1cccc(S(N)(=O)=O)c1)S(=O)(=O)N1CCN(c2ncnc3[nH]ccc23)CC12CC2 [Example 90, N-methyl-5-(7H-pyrrolo[2,3-d]pyrimidin-4-yl)-N-[(3-sulfamoylphenyl)methyl]-5,8-diazaspiro[2.5]octane-8-sulfonamide]",< 100,< 100,< 100,< 100
"COCCS(=O)(=O)N1CCC(CN(C)S(=O)(=O)N2CCN(c3ncnc4[nH]ccc34)CC23CC3)C1 (stereo not shown) [Example 120, N-[[1-(2-methoxyethylsulfonyl)pyrrolidin-3-yl]methyl]-N-methyl-5-(7H-pyrrolo[2,3-d]pyrimidin-4-yl)-5,8-diazaspiro[2.5]octane-8-sulfonamide]",< 100,< 100,< 100,100 to 500
"CN(Cc1ccc(S(N)(=O)=O)cc1)S(=O)(=O)N1CCN(c2ncnc3[nH]ccc23)CC12CC2 [Example 91, N-methyl-5-(7H-pyrrolo[2,3-d]pyrimidin-4-yl)-N-[(4-sulfamoylphenyl)methyl]-5,8-diazaspiro[2.5]octane-8-sulfonamide]",< 100,< 100,< 100,< 100
"CC#CCN(CCc1ccccc1)S(=O)(=O)N1CCN(c2ncnc3[nH]ccc23)CC12CC2 [Example 23, 7-(7H-Pyrrolo[2,3-d]pyrimidin-4-yl)-4,7-diaza-spiro[2.5]octane-4-sulfonic acid but-2-ynyl-phenethyl-amide]",< 100,< 100,100 to 500,> 500
"CN(CCOc1ccccc1C#N)S(=O)(=O)N1CCN(c2ncnc3[nH]ccc23)CC12CC2 [Example 70, N-[2-(2-cyanophenoxy)ethyl]-N-methyl-5-(7H-pyrrolo[2,3-d]pyrimidin-4-yl)-5,8-diazaspiro[2.5]octane-8-sulfonamide]",< 100,< 100,100 to 500,> 500
"CN(C[C@@H]1CCCN1S(C)(=O)=O)S(=O)(=O)N1CCN(c2ncnc3[nH]ccc23)CC12CC2 [Example 194, N-methyl-N-[[(2S)-1-methylsulfonylpyrrolidin-2-yl]methyl]-5-(7H-pyrrolo[2,3-d]pyrimidin-4-yl)-5,8-diazaspiro[2.5]octane-8-sulfonamide]",< 100,< 100,< 100,100 to 500
"CN(C)C(=O)CN(C)S(=O)(=O)N1CCN(c2ncnc3[nH]ccc23)CC12CC2 [Example 36, N,N-Dimethyl-2-{methyl-[7-(7H-pyrrolo[2,3-d]pyrimidin-4-yl)-4,7-diaza-spiro[2.5]octane-4-sulfonyl]-amino}-acetamide]",< 100,< 100,100 to 500,100 to 500
